Data on 4 compounds can be found in article PMC12456999, “Sulfonyl Homoserine Lactones Are Tunable Probes to Inhibit the Quorum Sensing Receptor RhlR and Reduce Swarming Motility in Pseudomonas aeruginosa” (ACS Infectious Diseases, 2025).

The target in this experiment is T1, RhlR (Pseudomonas aeruginosa, UniProt P54292).
T1 construct: expressed in transfected cells; host or cells: E. coli JLD271 (K-12 ΔlacX74 sdiA271::Cam) carrying pJN105-R2 (RhlR expression) and pSC11-rhlI (rhlI'-lacZ reporter)
T1 sequence (P54292 whole entry): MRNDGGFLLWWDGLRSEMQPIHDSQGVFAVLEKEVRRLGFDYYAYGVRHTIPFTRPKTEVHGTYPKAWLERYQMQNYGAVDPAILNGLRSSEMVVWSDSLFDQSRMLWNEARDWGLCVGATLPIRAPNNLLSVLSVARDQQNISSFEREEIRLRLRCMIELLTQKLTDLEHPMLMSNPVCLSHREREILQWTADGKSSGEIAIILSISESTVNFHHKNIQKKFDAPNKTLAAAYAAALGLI
Briefly: E. coli (JLD271) RhlR reporter antagonism assay, in competition with BHL. The format is cell-based. The note with it: for max. RhlR inhibition (%): BHL at 10 μM set to 0%, media control set to 100%. How it is done: To start, the sulfonyl HLs were evaluated for their ability to antagonize RhlR using a previously described E. coli strain (JLD271) harboring a RhlR expression plasmid and a rhlI reporter plasmid. This E. coli reporter produces RhlR, and protein activity in the presence of an added small molecule can be measured via the production of β-galactosidase as quantified via luminescence (see Methods). Compounds were screened in competition against RhlR’s native ligand, BHL (at its EC50 value in this strain, 10 μM), over a range of concentrations to generate antagonism dose–response curves (see Supporting Information) and calculate IC50 values (listed in Table ). A small set of compounds was also screened for RhlR agonism in the E. coli reporter; the agonism assay format was identical to the antagonism assay, except no BHL was added.
RhlR activity in E. coli strain JLD271 (ΔsdiA) was measured via a β-galactosidase reporter (rhI-lacZ) using the Promega Beta-Glo Assay System as previously described. RhlR activity in P. aeruginosa PA14 (ΔrhlIΔlasI) was measured via a GFP reporter (rhlA-gfp). […] See Supporting Information for both reporter protocols.
Supporting Information — Aguirre-Figueroa et al.
E. coli and P. aeruginosa RhlR reporter assay protocols.
E. coli RhlR reporter assay. RhlR activity in E. coli strain JLD271 (ΔsdiA) was measured via a β-galactosidase reporter using the Promega Beta-Glo® Assay System as previously described.10 A schematic of the reporter plasmids and assay protocol is shown in Scheme S1. Briefly, a single colony of E. coli JLD271 harboring the RhlR expression plasmid pJN105-R and the rhlI-lacZ transcriptional fusion reporter pSC11-R (Table S1) was grown in LB medium with 100 μg/mL ampicillin and 10 μg/mL gentamicin overnight (~16 h). The culture was diluted 1:10 in fresh LB medium and grown to an OD600 = 0.25 (0.23–0.28) (~0.5 h). Arabinose was added to a final concentration of 4 mg/mL to induce the expression of pJN105-R. Aliquots (2 μL) of compound DMSO stock solution or serial dilution were added to the inner wells (i.e., non-periphery rows) of a 96-well microtiter plate. To six inner wells, DMSO alone (vehicle) was added as a negative control. For agonism assays, BHL was added to six inner wells as a positive control (to achieve 1 mM). For antagonism assays, BHL was added to six inner wells as a positive control and to all of the other sample wells except for the vehicle control wells (to achieve 10 μM ). Subculture (198 μL) was then dispensed into each inner well. To the outer (periphery) wells, 200 μL of water were added to maintain humidity during incubation. Plates were then incubated for 4 h (shaking) at 37 °C.
Scheme S1. Schematic of E. coli reporter plasmids and assay. (A) Representation of plasmids used in the heterologous reporter system. (B) General reporter assay workflow. BioRender used in […]
After the incubation period, the OD600 of each well was measured using a plate reader. Cell dilution plates were prepared by transferring 10 μL from the incubated culture plate wells to a fresh 96-well plate and adding 90 μL of 18 MΩ water to each well. Next, 10 μL aliquots of diluted Beta-Glo® reagent (1:2 with 18 MΩ water) were added to each well of a white 384-well microtiter plate, followed by 10 μL of culture from each well of the dilution plate. The 384-well plate was incubated (without shaking; i.e., static) for 30 min at 30 °C. After incubation, luminescence of each well was measured using a plate reader. To determine levels of RhlR activity, raw luminescence was divided by OD600 to correct for growth variation and then normalized to the negative (0%) and positive (100%) control wells.
Dose-response reporter assay data for compounds in the E. coli RhlR reporter.
Dose-response curves for RhlR antagonism by compounds against 10 μM BHL using the E. coli JLD271 RhlR reporter are provided below. Compound names are indicated on the x-axis of each plot.
All assays performed in triplicate as at least three separate biological replicates. […]

Where [1] appears, read: IC50, E. coli JLD271 RhlR reporter, against 10 μM BHL.

Where two headings read alike, the source gives them in different places.

Take `O=C1OCC[C@@H]1NS(=O)(=O)c1cccc(Br)c1` [Compound 39, 3-bromo BSHL]: the “fold more potent than 4-bromo BSHL (35)” value (E. coli RhlR reporter IC50) is on record as roughly 6 fold. Moreover, the “max. RhlR inhibition (%)” value (E. coli RhlR reporter) is listed as 90%. Moreover, the IC50 under setting [1] is 29.9 µM.

Compound `O=C1OCC[C@@H]1NS(=O)(=O)c1ccc(Cl)c(Cl)c1` [Compound 43, 3,4-di-Cl BSHL] displayed a potency gain (33 vs 16, 43 vs 24, 86 vs 45, E. coli RhlR reporter IC50) of no more than 40 fold. In addition, the “fold lower IC50 value than 3-Cl BSHL (28)” value (E. coli RhlR reporter IC50) is “over 2 fold”. Besides, the “max. RhlR inhibition (%)” value (E. coli RhlR reporter) amounted to 99%. In addition, the IC50 under setting [1] is 54.3 µM.

For the compound `O=C1OCC[C@@H]1NS(=O)(=O)c1ccc(F)c(F)c1` [Compound 59, 3,4-di-F BSHL], the “max. RhlR inhibition (%)” value (E. coli RhlR reporter) came out at 87%. The same compound came in with an IC50 under setting [1] of 87.8 µM.

`CCCCCS(=O)(=O)N[C@H]1CCOC1=O` [Compound 75, C5 ASHL]: the IC50 is, setting by setting: (E. coli JLD271 RhlR reporter, against 10 μM BHL) 20.6 µM; (read-out: inhibitory potency on average (74, 75 and 18), average over the C4, C5 and C6 ASHLs, E. coli RhlR reporter) roughly 28 µM. In addition, the “max. RhlR inhibition (%)” value (E. coli RhlR reporter) was determined as 84%.
